Legend:
[1] = Cytotoxicity against human LCC6 cells at 200 nM after 72 hrs by SRB assay; format: cell-based; settings: lcc6, 72 h, 0.2 µM
[2] = Cytotoxicity against human SW620/AD300 cells expressing p-glycoprotein at 200 nM after 72 hrs by SRB assay; format: cell-based; settings: sw-620, 72 h, 0.2 µM
[3] = target: T1, ATP-dependent translocase ABCB1 (Homo sapiens, UniProt P08183); test: Inhibition of p-glycoprotein in human LCC6/MDR cells assessed as increase of paclitaxel-induced cytotoxicity at 200 nM after 72 hrs by SRB assay relative to control; format: cell-based; settings: 0.2 µM
[4] = target: T1, ATP-dependent translocase ABCB1; test: Inhibition of p-glycoprotein-mediated rhodamine-123 efflux in human K562/p-gp cells after 1 hr by flow cytometry; format: cell-based
[5] = Cytotoxicity against human LCC6 cells expressing p-glycoprotein at 200 nM after 72 hrs by SRB assay; format: cell-based; settings: lcc6, 72 h, 0.2 µM
[6] = system: MCF7; test: Cytotoxicity against human MCF7 cells at 200 nM after 72 hrs by SRB assay; format: cell-based; settings: mcf7, 72 h, 0.2 µM
[7] = system: SW-620; test: Cytotoxicity against human SW620 cells assessed as cell viability after 48 hrs by MTT assay; format: cell-based; settings: SW-620, 48 h
[8] = Cytotoxicity against human HFE cells assessed as cell viability after 72 hrs by MTT assay; format: cell-based
[9] = target: T2, Broad substrate specificity ATP-binding cassette transporter ABCG2 (Homo sapiens, UniProt Q9UNQ0); test: Induction of 5D3 antibody binding to BCRP in human K562 cells at 0.5 uM preincubated for 10 mins followed by antibody addition measured after 45 mins by flow cytometry relative to tariquidar; format: cell-based; settings: k562, 0.75 h
T2 sequence (Q9UNQ0 whole entry): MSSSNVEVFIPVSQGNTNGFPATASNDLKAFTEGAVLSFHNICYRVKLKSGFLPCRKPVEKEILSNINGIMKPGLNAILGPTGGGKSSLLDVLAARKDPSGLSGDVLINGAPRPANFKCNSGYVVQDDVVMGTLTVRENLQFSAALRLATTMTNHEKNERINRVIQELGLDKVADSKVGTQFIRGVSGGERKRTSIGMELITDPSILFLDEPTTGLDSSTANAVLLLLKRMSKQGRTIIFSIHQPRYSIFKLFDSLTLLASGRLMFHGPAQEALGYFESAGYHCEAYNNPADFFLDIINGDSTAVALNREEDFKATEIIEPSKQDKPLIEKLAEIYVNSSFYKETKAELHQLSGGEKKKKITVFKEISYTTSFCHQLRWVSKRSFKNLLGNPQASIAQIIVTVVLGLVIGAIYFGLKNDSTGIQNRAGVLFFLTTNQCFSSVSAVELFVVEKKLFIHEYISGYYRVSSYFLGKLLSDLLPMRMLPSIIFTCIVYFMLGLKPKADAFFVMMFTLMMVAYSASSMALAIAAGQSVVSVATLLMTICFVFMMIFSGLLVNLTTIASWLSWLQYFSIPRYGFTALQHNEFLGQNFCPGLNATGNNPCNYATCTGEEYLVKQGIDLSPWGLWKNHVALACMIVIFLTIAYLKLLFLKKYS

[10] = target: T1, ATP-dependent translocase ABCB1; test: Inhibition of p-glycoprotein in human HepG2 cells assessed as increase of doxorubicin-induced cytotoxicity at 200 nM after 72 hrs by SRB assay relative to control; format: cell-based; settings: hepg2, 72 h, 0.2 µM
[11] = system: SW-620; test: Potentiation of doxorubicin-induced cytotoxicity against human SW620 cells at 200 nM after 72 hrs by SRB assay relative to control; format: functional
[12] = system: HepG2; test: Cytotoxicity against human HepG2 cells expressing p-glycoprotein at 200 nM after 72 hrs by SRB assay; format: cell-based; settings: hepg2, 72 h, 0.2 µM
[13] = target: T2, Broad substrate specificity ATP-binding cassette transporter ABCG2; test: (§1) Inhibition of BCRP-mediated pheophorbide-A efflux in human K562/BCRP cells at 0.5 uM after 1 hr by flow cytometry; format: cell-based; settings: k562/bcrp, 1 h, 0.5 µM
[14] = system: HCT-116; test: Cytotoxicity against human HCT116 cells assessed as cell viability after 48 hrs by MTT assay; format: cell-based; settings: HCT-116, 48 h
[15] = target: P-glycoprotein (ABCB1) (Homo sapiens, UniProt P08183); test: (§2) Inhibition of p-glycoprotein-mediated rhodamine-123 efflux in human K562/p-gp cells at 0.5 uM after 1 hr by flow cytometry relative to tariquidar; format: cell-based; settings: K562/p-gp cells, probe rhodamine-123
[16] = target: Multidrug resistance-associated protein 1 (Homo sapiens, UniProt P33527); test: Inhibition of MRP1 (unknown origin)-mediated calcein-AM efflux expressed in HEK293/MRP1 cells at 0.5 uM after 1 hr by flow cytometry; format: cell-based; settings: hek293/mrp1, 1 h
[17] = target: T2, Broad substrate specificity ATP-binding cassette transporter ABCG2; test: Induction of BCRP (unknown origin) expressed in High five insect cell membranes assessed as ATP hydrolysis after 10 mins by colorimetric ATPase assay
[18] = system: Hepatocyte; test: Cytotoxicity against rat hepatocytes assessed as cell viability after 72 hrs by MTT assay; format: cell-based; settings: for IC50: Rattus norvegicus, Hepatocyte
[19] = system: HepG2; test: Potentiation of doxorubicin-induced cytotoxicity against human HepG2 cells at 200 nM after 72 hrs by SRB assay relative to control; format: functional
[20] = Cytotoxicity against human CCD-18Co cells assessed as cell viability after 48 hrs by MTT assay; format: cell-based
[21] = system: K562; test: Induction of UIC2 antibody binding to p-glycoprotein in human K562 cells at 0.5 uM preincubated for 10 mins followed by antibody addition measured after 45 mins by flow cytometry relative to tariquidar; format: cell-based
[22] = Cytotoxicity against human MCF-7 FLV1000 cells expressing BCRP at 200 nM after 72 hrs by SRB assay; format: ADME, cell-based; settings: mcf-7 flv1000, 72 h, 0.2 µM
[23] = Potentiation of paclitaxel-induced cytotoxicity against human LCC6 cells at 200 nM after 72 hrs by SRB assay relative to control; format: functional
[24] = Cytotoxicity against human SW620/AD300 cells assessed as cell viability after 48 hrs by MTT assay; format: cell-based; settings: SW-620, 48 h
[25] = target: T1, ATP-dependent translocase ABCB1; test: Inhibition of p-glycoprotein in human SW620/AD300 cells assessed as increase of doxorubicin-induced cytotoxicity at 200 nM after 72 hrs by SRB assay relative to control; format: cell-based; settings: sw-620, 72 h, 0.2 µM
[26] = target: T1, ATP-dependent translocase ABCB1; test: Inhibition of p-glycoprotein-mediated doxorubicin efflux in human K562/p-gp cells at 1 uM after 1 hr by flow cytometry; format: cell-based
[27] = target: T2, Broad substrate specificity ATP-binding cassette transporter ABCG2; test: Inhibition of BCRP in human MCF-7 FLV1000 cells assessed as increase of mitoxantrone-induced cytotoxicity at 200 nM after 72 hrs by SRB assay relative to control; format: cell-based; settings: 0.2 µM
[28] = system: MCF7; test: Potentiation of mitoxantrone-induced cytotoxicity against human MCF7 cells at 200 nM after 72 hrs by SRB assay relative to control; format: functional
[29] = system: K562; test: Effect on rhodamine-123 efflux in wild type human K562 cells at 0.5 uM after 1 hr by flow cytometry; format: ADME, cell-based; settings: k562, 1 h
[30] = system: HepG2; test: Cytotoxicity against human HepG2 cells at 200 nM after 72 hrs by SRB assay; format: cell-based; settings: hepg2, 72 h, 0.2 µM
[31] = species on record: Homo sapiens; test: Inhibition of p-glycoprotein (unknown origin) expressed in High five insect cell membranes assessed as ATP hydrolysis after 20 mins by colorimetric ATPase assay
[32] = system: SW-620; test: Cytotoxicity against human SW620 cells at 200 nM after 72 hrs by SRB assay; format: cell-based; settings: sw-620, 72 h, 0.2 µM
[33] = target: T3, BCRP (ABCG2) (Homo sapiens, UniProt Q9UNQ0); test: as §1; format: cell-based; settings: K562/BCRP cells, probe pheophorbide-A
T3 sequence (Q9UNQ0 whole entry): T2 sequence (Q9UNQ0 whole entry)

[34] = target: T1, ATP-dependent translocase ABCB1; test: as §2; format: cell-based; settings: 1 h, 0.5 µM

T1 sequence (P08183 whole entry): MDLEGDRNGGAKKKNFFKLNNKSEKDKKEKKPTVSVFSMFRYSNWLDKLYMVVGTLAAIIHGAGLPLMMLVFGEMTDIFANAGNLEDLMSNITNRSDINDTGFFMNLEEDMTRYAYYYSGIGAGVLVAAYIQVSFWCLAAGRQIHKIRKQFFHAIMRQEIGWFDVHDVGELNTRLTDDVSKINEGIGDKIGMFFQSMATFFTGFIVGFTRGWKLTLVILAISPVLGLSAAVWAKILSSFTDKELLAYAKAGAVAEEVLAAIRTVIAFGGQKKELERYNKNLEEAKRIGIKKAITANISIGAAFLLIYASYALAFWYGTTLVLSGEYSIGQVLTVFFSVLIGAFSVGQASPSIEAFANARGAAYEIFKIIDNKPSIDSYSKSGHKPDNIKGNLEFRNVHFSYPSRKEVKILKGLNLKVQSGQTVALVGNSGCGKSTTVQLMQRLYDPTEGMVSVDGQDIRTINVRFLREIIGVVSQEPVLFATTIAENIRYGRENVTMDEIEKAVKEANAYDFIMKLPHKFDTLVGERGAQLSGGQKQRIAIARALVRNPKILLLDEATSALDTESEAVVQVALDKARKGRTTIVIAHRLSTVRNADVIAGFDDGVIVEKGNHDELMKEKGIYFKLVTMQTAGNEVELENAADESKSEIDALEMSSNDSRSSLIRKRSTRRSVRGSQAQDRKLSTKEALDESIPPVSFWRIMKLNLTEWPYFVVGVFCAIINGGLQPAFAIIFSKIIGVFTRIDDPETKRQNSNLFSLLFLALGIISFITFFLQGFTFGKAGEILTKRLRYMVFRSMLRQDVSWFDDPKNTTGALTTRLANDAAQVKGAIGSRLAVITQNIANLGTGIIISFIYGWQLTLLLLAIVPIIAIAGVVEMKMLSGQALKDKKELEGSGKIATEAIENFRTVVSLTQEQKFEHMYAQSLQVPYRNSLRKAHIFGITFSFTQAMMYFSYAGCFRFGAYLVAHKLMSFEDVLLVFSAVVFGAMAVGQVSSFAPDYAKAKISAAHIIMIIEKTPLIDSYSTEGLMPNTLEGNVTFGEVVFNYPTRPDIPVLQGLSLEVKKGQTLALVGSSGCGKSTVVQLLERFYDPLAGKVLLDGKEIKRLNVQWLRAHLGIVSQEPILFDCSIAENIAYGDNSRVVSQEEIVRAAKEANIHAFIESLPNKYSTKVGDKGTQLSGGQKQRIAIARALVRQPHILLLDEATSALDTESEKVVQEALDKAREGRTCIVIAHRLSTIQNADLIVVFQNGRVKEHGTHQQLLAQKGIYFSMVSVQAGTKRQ
Chain of Multidrug resistance-associated protein 1 (P33527 whole entry): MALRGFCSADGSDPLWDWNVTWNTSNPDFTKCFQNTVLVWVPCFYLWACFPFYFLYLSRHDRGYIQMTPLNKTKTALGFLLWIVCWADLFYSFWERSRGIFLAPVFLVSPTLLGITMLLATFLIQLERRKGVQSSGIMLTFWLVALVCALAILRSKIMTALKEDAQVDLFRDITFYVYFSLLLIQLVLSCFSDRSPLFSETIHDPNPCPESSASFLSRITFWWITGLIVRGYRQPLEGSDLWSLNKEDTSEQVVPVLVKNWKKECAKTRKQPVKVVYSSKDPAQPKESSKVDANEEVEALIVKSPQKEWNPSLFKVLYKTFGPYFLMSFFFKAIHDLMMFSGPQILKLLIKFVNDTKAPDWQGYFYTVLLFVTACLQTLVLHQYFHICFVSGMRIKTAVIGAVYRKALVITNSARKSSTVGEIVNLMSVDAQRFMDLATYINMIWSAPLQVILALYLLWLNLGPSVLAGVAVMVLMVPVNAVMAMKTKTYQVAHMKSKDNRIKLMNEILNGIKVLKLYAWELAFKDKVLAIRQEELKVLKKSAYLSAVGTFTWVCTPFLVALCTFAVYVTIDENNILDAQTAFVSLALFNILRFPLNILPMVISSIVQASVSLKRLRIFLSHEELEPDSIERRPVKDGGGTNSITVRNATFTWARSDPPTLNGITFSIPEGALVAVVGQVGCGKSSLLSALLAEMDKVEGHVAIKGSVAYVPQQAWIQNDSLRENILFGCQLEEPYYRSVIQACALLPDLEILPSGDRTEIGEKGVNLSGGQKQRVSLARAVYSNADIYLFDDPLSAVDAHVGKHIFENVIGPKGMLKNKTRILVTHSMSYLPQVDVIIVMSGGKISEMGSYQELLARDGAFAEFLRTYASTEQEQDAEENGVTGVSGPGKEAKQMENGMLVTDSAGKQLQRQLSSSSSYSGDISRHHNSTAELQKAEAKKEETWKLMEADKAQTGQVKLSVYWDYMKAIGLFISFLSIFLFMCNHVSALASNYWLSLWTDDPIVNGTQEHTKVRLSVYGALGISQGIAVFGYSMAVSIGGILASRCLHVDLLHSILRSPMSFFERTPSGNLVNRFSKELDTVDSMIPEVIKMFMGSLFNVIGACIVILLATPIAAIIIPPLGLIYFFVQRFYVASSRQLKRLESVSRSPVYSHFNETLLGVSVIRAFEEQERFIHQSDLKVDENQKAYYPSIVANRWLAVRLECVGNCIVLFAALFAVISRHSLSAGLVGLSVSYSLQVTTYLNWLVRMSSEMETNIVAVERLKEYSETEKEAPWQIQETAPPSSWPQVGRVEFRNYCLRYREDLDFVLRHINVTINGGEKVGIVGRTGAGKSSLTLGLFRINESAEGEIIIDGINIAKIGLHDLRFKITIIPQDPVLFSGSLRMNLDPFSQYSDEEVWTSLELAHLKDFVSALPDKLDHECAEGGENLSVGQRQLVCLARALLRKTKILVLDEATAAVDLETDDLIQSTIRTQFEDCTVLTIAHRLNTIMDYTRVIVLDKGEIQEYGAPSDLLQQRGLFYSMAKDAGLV
Chain of P-glycoprotein (ABCB1) (P08183 whole entry): as the sequence (P08183 whole entry) above

inhibition (INH) [4] | Activity [9] | inhibition (INH) [16] | Activity [17] | Structure (SMILES) | Activity [1] | fold change (FC) [3] | Activity [5] | Activity [6] | IC50 [7] | IC50 [8] | IC50 [14] | IC50 [20] | Activity [21] | Activity [22] | fold change (FC) [23] | IC50 [24] | fold change (FC) [27] | fold change (FC) [28] | Activity [29] | inhibition [31] | also measured
Dose-dependent effect | 90.7% | Not Active | Active | COc1cc2c(cc1OC)CN(CCc1ccc(NC(=O)c3ccccc3NC(=O)c3cnc4ccccc4c3)cc1)CC2 | Non-toxic | 2.8 | Non-toxic | Non-toxic | > 100 µM | > 5 µM | > 100 µM | > 100 µM | 93.2% | Non-toxic | 0.9 | > 100 µM | 2.9 | 1.3 | Non-toxic | Dose-dependent effect | Activity [2]: Non-toxic; fold change (FC) [10]: 0.38; fold change (FC) [11]: 0.36; Activity [12]: Non-toxic; inhibition (INH) [13]: Active; inhibition at 1 h, 0.5 µM [15]: 90.5%; IC50 [18]: 50 µM; fold change (FC) [19]: 0.29; fold change (FC) [25]: 6.23; inhibition (INH) [26]: Active; Activity [30]: Non-toxic; Activity [32]: Non-toxic
Dose-dependent effect | 118.6% | Not Active | Active | COc1cc2c(cc1OC)CN(CCc1ccc(NC(=O)c3ccccc3NC(=O)/C=C/c3ccccc3)cc1)CC2 | Non-toxic | 33 | Non-toxic | Non-toxic | > 100 µM | > 20 µM | > 100 µM | > 100 µM | 46.3% | Non-toxic | 1.6 | > 100 µM | 64 | 1.5 | Non-toxic | Dose-dependent effect | inhibition at 1 h, 0.5 µM [33]: 60%; inhibition (INH) [34]: Active; IC50 [18]: 100 µM
Dose-dependent effect | 149.4% | Not Active | Active | COc1cc2c(cc1OC)CN(CCc1ccc(NC(=O)c3ccccc3NC(=O)c3ccco3)cc1)CC2 | Non-toxic | 46 | Non-toxic | Non-toxic | > 100 µM | > 100 µM | > 100 µM | > 100 µM | 35.5% | Non-toxic | 1.3 | > 100 µM | 2.1 | 1.4 | Non-toxic | Dose-dependent effect | Activity [2]: Non-toxic; fold change (FC) [10]: 3; fold change (FC) [11]: 2.1; Activity [12]: Non-toxic; inhibition (INH) [13]: Active; inhibition (INH) [34]: Active; Activity ([18]; rat, hepatocytes): Non-toxic; fold change (FC) [19]: 1.09; fold change (FC) [25]: 2.63; Activity [30]: Non-toxic; Activity [32]: Non-toxic
